Results: patent US20040121946A9, “Inducing cellular immune responses to her2/neu using peptide and nucleic acid compositions” (priority 2002, published 2004)
Read-outs that look alike come from different tables or passages of the source.

Legend:
[1] = biological target: DRB1*0101 (DR1) (Homo sapiens, UniProt P01903+P01911, A100R/D57E/F55L/F60I/F76Y/I96L/L162R/M171V/P40L/Q125E/R42F/V115G/Y59C); assay: HLA class II peptide binding assay, purified HLA; settings: unit not given
[2] = biological target: DRB1*0301 (DR3) (Homo sapiens, UniProt P01903+P01911, A100K/A102G/A103R/A169T/F55Y/I96L/K41T/L162R/M171V/P40S/Q125H/Q178H/Q39Y/R42S/S66N/T106N/T262R/W38E/Y61H); assay: HLA class II peptide binding assay, purified HLA; settings: unit not given
[3] = biological target: DRB1*0401 (DR4w4) (Homo sapiens, UniProt P01903+P01911, A100K/A169T/F76Y/I96L/K127E/L162R/M171V/N62H/P40V/Q125Y/R42H/S133A/S149N/S66Y/V115G/V209L/W38E); assay: HLA class II peptide binding assay, purified HLA; settings: unit not given
[4] = biological target: DRB1*0701 (DR7) (Homo sapiens, UniProt P01903+P01911, A100R/A102G/A103Q/D57E/D86V/E43K/F76Y/K127E/L162R/M171V/P40G/Q125H/Q99D/R33Q/R42Y/R54Q/S133A/S66F/T210M/V115G/Y107V/Y59L/Y89S); assay: HLA class II peptide binding assay, purified HLA; settings: unit not given
[5] = biological target: DRB1*0802 (DR8w2) (Homo sapiens, UniProt P01903+P01911, A100R/A103L/A169T/F76Y/H45Y/I96F/K41T/L162R/M171V/P40S/Q125H/Q178H/Q39Y/Q99D/R218S/R42G/S66Y/V115G/W38E); assay: HLA class II peptide binding assay, purified HLA; settings: for DR8w2 binding data: unit not given
[6] = biological target: DRB1*1101 (DR5w11) (Homo sapiens, UniProt P01903+P01911, A100R/A169T/A87E/I96F/K41T/L162R/M171V/P40S/Q125H/Q178H/Q39Y/Q99D/R42S/S66Y/T262R/V115G/W38E); assay: HLA class II peptide binding assay, purified HLA; settings: for DR5w11 binding data: unit not given
[7] = biological target: DRB1*1302 (DR6w19) (Homo sapiens, UniProt P01903+P01911, A100E/A169T/K41T/L162R/M171V/P40S/Q125H/Q178H/Q39Y/Q99D/R42S/S66N/T262R/V115G/W38E/Y61H); assay: HLA class II peptide binding assay, purified HLA; settings: for DR6w19 binding data: unit not given
[8] = biological target: DRB1*1501 (DR2w2β1) (Homo sapiens, UniProt P01903+P01911); assay: HLA class II peptide binding assay, purified HLA; settings: for DR2wB1 binding data: Table XIX, DR supermotif peptides; for IC50: Table XXIX, read-out: DR2w2β1 nM
[9] = biological target: DRB5*0101 (DR2w2β2) (Homo sapiens, UniProt P01903+Q30154); assay: HLA class II peptide binding assay, purified HLA; settings: for DR2w2B2 binding data: unit not given; for IC50: Table XXIX, read-out: DR2w2β2 nM
[10] = test system: HLA-DR molecules (DR1, DR4w4, DR7, DRB5*0101, DRB1*1501, DRB1*1101, DRB1*0802, DRB1*1302); assay: DR supertype cross-reactive binding; design: species or system human; settings: for DR147 Binding / DR147 Cross-binding: number of DR1, DR4w4, DR7 bound; for DR147 Binding: Table XXIX; for DR147 Cross-binding: Table XXVIII; for Broad Binding (5/8): number of the 8 DR alleles bound; for No. of DR Alleles Crossbound: Table XXXI
[11] = Table XIX, DR supermotif peptides
[12] = Table XXa, DR 3a motif peptides

| DR1 binding data [1, 11] | DR3 binding data [2, 11] | DR4w4 binding data [3, 11] | DR7 binding data [4, 11] | DR8w2 binding data [5, 11] | DR5w11 binding data [6, 11] | DR6w19 binding data [7, 11] | DR2wB1 binding data ([8]; unit not given) | IC50 [8] [nM] | DR2w2B2 binding data [9, 11] | DR147 Binding [10] | DR147 Cross-binding [10] | Broad Binding (5/8) [10] | No. of DR Alleles Crossbound [10] | SMILES | also measured |
| --- | --- | --- | --- | --- | --- | --- | --- | --- | --- | --- | --- | --- | --- | --- | --- |
| 0.2400 | 0.0010 | −0.0025 | 0.0270 | −0.0004 | −0.0005 | 0.0034 | 0.0070 | 1300 | 0.0016 | 2 | 2 | 2 | – | CC[C@H](C)[C@H](NC(=O)[C@H](CCCCN)NC(=O)[C@H](CCCCN)NC(=O)[C@@H](N)CS)C(=O)N[C@@H](Cc1ccccc1)C(=O)NCC(=O)N[C@@H](CO)C(=O)N[C@@H](CC(C)C)C(=O)N[C@@H](C)C(=O)N[C@@H](Cc1ccccc1)C(=O)N[C@@H](CC(C)C)C(=O)N1CCC[C@H]1C(=O)N[C@@H](CCC(=O)O)C(=O)N[C@@H](CO)C(=O)N[C@@H](Cc1ccccc1)C(=O)O | – |
| 0.0500 | 0.0010 | 0.2300 | 0.2000 | 0.0570 | 0.0027 | 0.0020 | 0.0029 | 3140 | 0.0240 | 3 | 3 | 5 | 5 | CSCC[C@H](NC(=O)[C@@H](NC(=O)[C@H](Cc1ccc(O)cc1)NC(=O)[C@H](C)NC(=O)[C@H](CCC(=O)O)NC(=O)[C@@H](N)CC(=O)O)C(C)C)C(=O)N[C@@H](C)C(=O)NCC(=O)N[C@H](C(=O)NCC(=O)N[C@@H](CO)C(=O)N1CCC[C@H]1C(=O)N[C@@H](Cc1ccc(O)cc1)C(=O)N[C@H](C(=O)N[C@@H](CO)C(=O)O)C(C)C)C(C)C | IC50 ([5]; Table XXIX, read-out: DR8w2 nM): 860 nM; IC50 ([7]; Table XXIX, read-out: DR6w19 nM): 1750 nM; IC50 [9]: 833 nM |
| 0.4700 | 0.0010 | 0.3800 | 0.0680 | 0.0220 | 0.0050 | 0.0017 | 0.0280 | – | 0.0090 | 3 | 3 | 4 | – | CC(C)C[C@H](NC(=O)[C@H](CO)NC(=O)[C@H](C)NC(=O)[C@H](CC(N)=O)NC(=O)[C@@H](NC(=O)[C@@H]1CCCN1C(=O)[C@H](CC(C)C)NC(=O)[C@H](Cc1ccc(O)cc1)NC(=O)[C@@H](NC(=O)[C@H](CC(C)C)NC(=O)[C@H](CCC(=O)O)NC(=O)[C@H](CC(C)C)NC(=O)[C@@H](N)CC(N)=O)[C@@H](C)O)[C@@H](C)O)C(=O)N[C@@H](CO)C(=O)N[C@@H](Cc1ccccc1)C(=O)O | – |
| 0.0670 | 0.0976 | 0.0060 | 0.1000 | 0.0051 | 0.0046 | 0.0013 | 0.0540 | – | 0.0027 | 2 | 2 | 3 | – | CC[C@H](C)[C@H](NC(=O)[C@H](CCSC)NC(=O)[C@H](Cc1ccc(O)cc1)NC(=O)[C@@H](NC(=O)[C@H](CC(=O)O)NC(=O)[C@@H](NC(=O)[C@@H](NC(=O)[C@H](CS)NC(=O)[C@@H](NC(=O)[C@@H]1CCCN1C(=O)[C@@H]1CCCN1C(=O)[C@@H](N)CCC(N)=O)[C@@H](C)CC)[C@@H](C)O)[C@@H](C)CC)C(C)C)C(=O)N[C@@H](CCSC)C(=O)N[C@H](C(=O)N[C@@H](CCCCN)C(=O)O)C(C)C | – |
| 0.3500 | 0.0062 | 0.1200 | 0.5600 | 0.0009 | 0.0140 | 0.3400 | 0.0220 | – | −0.0007 | 3 | 3 | 5 | 5 | CC[C@H](C)[C@H](NC(=O)CNC(=O)[C@H](CC(C)C)NC(=O)[C@H](CC(C)C)NC(=O)[C@H](CCCNC(=N)N)NC(=O)[C@@H](N)CO)C(=O)N[C@@H](CS)C(=O)N[C@@H](CC(C)C)C(=O)N[C@H](C(=O)N[C@@H](CO)C(=O)N[C@H](C(=O)N[C@H](C(=O)N[C@@H](CCC(N)=O)C(=O)N[C@@H](CC(C)C)C(=O)N[C@H](C(=O)O)C(C)C)C(C)C)[C@@H](C)O)[C@@H](C)O | – |
| 0.0700 | 0.0021 | 0.0029 | 0.0320 | 0.6400 | 0.4700 | 0.0150 | 0.0110 | – | 0.0620 | 2 | 2 | 7 | 7 | CC[C@H](C)[C@H](NC(=O)CNC(=O)[C@H](Cc1ccccc1)NC(=O)[C@@H](NC(=O)[C@@H](NC(=O)CNC(=O)[C@H](CC(C)C)NC(=O)[C@@H](N)C(C)C)C(C)C)C(C)C)C(=O)N[C@@H](CC(C)C)C(=O)N[C@H](C(=O)N[C@@H](CCCCN)C(=O)N[C@@H](CCCNC(=N)N)C(=O)N[C@@H](CCCNC(=N)N)C(=O)N[C@@H](CCC(N)=O)C(=O)N[C@@H](CCC(N)=O)C(=O)O)[C@@H](C)CC | – |
| 0.0340 | 0.3400 | 0.0150 | 0.0230 | 0.1000 | 0.2700 | 0.0430 | 0.0064 | – | 0.0033 | – | – | – | 4 | CC(C)C[C@H](NC(=O)[C@H](CC(=O)O)NC(=O)[C@H](CCCNC(=N)N)NC(=O)[C@H](Cc1c[nH]cn1)NC(=O)[C@@H](NC(=O)[C@H](CC(C)C)NC(=O)[C@H](CCCNC(=N)N)NC(=O)[C@@H](N)C(C)C)C(C)C)C(=O)N[C@@H](C)C(=O)N[C@@H](C)C(=O)N[C@@H](CCCNC(=N)N)C(=O)N[C@@H](CC(N)=O)C(=O)N[C@H](C(=O)N[C@@H](CC(C)C)C(=O)N[C@H](C(=O)O)C(C)C)C(C)C | DR1 binding data [1, 12]: 0.0340; DR3 binding data [2, 12]: 0.3400; DR4w4 binding data [3, 12]: 0.0150; DR7 binding data [4, 12]: 0.0230; IC50 ([5]; Table XXXI): 490 nM; DR8w2 binding data [5, 12]: 0.1000; IC50 ([6]; Table XXXI): 74 nM; DR5w11 binding data [6, 12]: 0.2700; IC50 ([7]; Table XXXI): 81 nM; DR6w19 binding data [7, 12]: 0.0430; DR2w2B1 binding data ([8]; Table XXa, DR 3a motif peptides, unit not given): 0.0064; DR2w2B2 binding data [9, 12]: 0.0033 |
| 0.0870 | 0.0010 | 0.0550 | 0.0370 | 0.0089 | 0.0054 | 0.0004 | 0.0990 | 92 | 0.1000 | 3 | 3 | 5 | 5 | CC[C@H](C)[C@H](NC(=O)CNC(=O)[C@H](CC(=O)O)NC(=O)[C@H](Cc1ccc(O)cc1)NC(=O)[C@@H]1CCCN1C(=O)[C@H](CCCCN)NC(=O)[C@H](C)NC(=O)CNC(=O)[C@H](Cc1ccccc1)NC(=O)[C@@H](NC(=O)[C@H](CCSC)NC(=O)[C@H](CC(C)C)NC(=O)[C@H](CCC(=O)O)NC(=O)[C@H](Cc1c[nH]c2ccccc12)NC(=O)[C@@H](N)C(C)C)[C@@H](C)O)C(=O)O | IC50 ([6]; Table XXIX, read-out: DR5w11 nM): 3700 nM; IC50 [9]: 200 nM |
